Laboratory results taken from patent US5114464A, “4-quinoxalinyloxyphenoxyalkylinitrile herbicides” (Uniroyal Chemical Company, Inc., priority 1990, dated 1992).

Key:
[1] = system: weeds; assay: Preemergence control, summary statement; type: in vivo; conditions: 11.2 kg/ha
Description: (§1) To illustrate the effectiveness of the Compounds 1 and 2 of this invention as preemergence herbicides, 300 mg of each compound were dissolved in 10 ml acetone to which 30 mg of an emulsifying agent, ethoxylated sorbitan monolaurate, were added. The solution was diluted to 100 ml with distilled water. Ten milliliters of the 3000 ppm solution were diluted to 250 ppm with distilled water. The chemical was applied at the rate of 10 lb/A (11.2 kg/ha) by drenching 46 ml of the 250 ppm solution on the surface of soil in 41/2inch (11.25 cm) plastic pots wherein seeds of the following weeds had been planted: velvet leaf (Abutilon theoohrasti Medic.) (VL), prickly sida (sida soinosa L.) (PS), tall morningglory (Ioomea purourea L. Roth) (TM), switchgrass (Panicum viroatum L.) (SG), barnyard grass (Echinolchloa crus-oalli (L.) Beauv.) (BG), and green foxtail (Setaria viridis) (L.) Beauv.) (GF). The percent control of the weeds compared to untreated checks was determined two weeks after treatment.

[2] = system: barnyard grass; assay: Preemergence control of barnyard grass (Table I); type: in vivo, Echinolchloa crus-oalli (L.) Beauv.; conditions: 11.2 kg/ha, two weeks after treatment
Description: as §1

[3] = system: barnyard grass; assay: Postemergence selectivity, greenhouse: barnyard grass control (Table III); type: in vivo, Echinolchloa crus-oalli (L.) Beauv.; conditions: 250 ppm, treated May 26, rated Jun. 12
Description: as §1
(§2) To illustrate the effectiveness of Compound 1 of this invention as a corn-safe selective postemergence herbicide, the 3000 ppm solution prepared as described in Example 3 was diluted with distilled water to 250 ppm and applied to foliage as described in Example 3. The commercial product Hoelon 3EC® (Hoechst) was included as a standard. […] The percent weed control and crop injury was determined on Jun. […]

[4] = system: green foxtail; assay: Preemergence control of green foxtail (Table I); type: in vivo, Setaria viridis (L.) Beauv.; conditions: 11.2 kg/ha, two weeks after treatment
Description: as §1

[5] = system: velvet leaf; assay: Postemergence control of velvet leaf (Table II); type: in vivo, Abutilon theoohrasti Medic.; conditions: 3000 ppm, two weeks after treatment
Description: as §1
(§3) To test the effectiveness of Compounds 1 and 2 of this invention as postemergence herbicides, a 3000 ppm solution of each compound (produced in accordance with the process described under Example 3) was atomized employing a DEVILBISS [trademark] sprayer, wetting the foliage to the drip point. […] The percent weed control was evaluated two weeks after treatment.

[6] = system: tall morningglory; assay: Preemergence control of tall morningglory (Table I); type: in vivo, Ioomea purourea L. Roth; conditions: 11.2 kg/ha, two weeks after treatment
Description: as §1

[7] = system: switchgrass; assay: Postemergence control of switchgrass (Table II); type: in vivo, Panicum viroatum L.; conditions: 3000 ppm, two weeks after treatment
Description: as §1, §3

[8] = system: corn hybrids; assay: Postemergence selectivity, field test: corn hybrids (Table IV); type: in vivo; conditions: for Percent corn crop control (injury): 33 days
Description: (§4) To further illustrate the effectiveness of Compound 1 of this invention as a corn-safe selective postemergence herbicide, field tests were run in which five corn hybrids (designated C9979, C6114, C8004 and C1914 by the Independent Professional Seedsmans Association, and Pioneer 3295) along with two grass weeds (Giant foxtail, "GF"; and Barnyard grass, "BG") were planted in an Illinois field on April 24. The crops were treated with various amounts of Compound 1 in early Jun., and the amount of crop control was evaluated 33 days after treatment compared to an untreated control. The active ingredient was formulated as follows: […]
(§5) That produces a formulation containing 10% active ingredient by weight. The required amount of formulation to produce the indicated rate per acre is added to water, mixed with one quart of an adjuvant containing 83% mineral oil and 17% emulsifiers, then brought up to a total spray volume of 20 gallons per acre with water.

[9] = system: barnyard grass; assay: Postemergence control of barnyard grass (Table II); type: in vivo, Echinolchloa crus-oalli (L.) Beauv.; conditions: 3000 ppm, two weeks after treatment
Description: as §1, §3

[10] = system: soybean; assay: Postemergence selectivity, greenhouse: soybean injury (Table III); type: in vivo; conditions: 250 ppm, treated May 26, rated Jun. 12
Description: as §1, §2

[11] = system: prickly sida; assay: Postemergence control of prickly sida (Table II); type: in vivo, sida soinosa L.; conditions: 3000 ppm, two weeks after treatment
Description: as §1, §3

[12] = system: grass weeds; assay: Postemergence selectivity greenhouse (Example 5), summary for grass weeds; type: in vivo; conditions: 250 ppm
Description: as §1, §2

[13] = system: green foxtail; assay: Postemergence selectivity, greenhouse: green foxtail control (Table III); type: in vivo, Setaria viridis (L.) Beauv.; conditions: 250 ppm, treated May 26, rated Jun. 12
Description: as §1, §2

[14] = system: grass weeds; assay: Postemergence selectivity field test (Example 6), summary for grass weeds; type: in vivo; conditions: 0.125 to 0.50 lb/a
Description: as §4, §5

[15] = system: switchgrass; assay: Postemergence selectivity, greenhouse: switchgrass control (Table III); type: in vivo, Panicum viroatum L.; conditions: 250 ppm, treated May 26, rated Jun. 12
Description: as §1, §2

[16] = system: cotton; assay: Postemergence selectivity, greenhouse: cotton injury (Table III); type: in vivo; conditions: 250 ppm, treated May 26, rated Jun. 12
Description: as §1, §2

[17] = system: Giant foxtail; assay: Postemergence selectivity, field test: Giant foxtail control (Table IV); type: in vivo; conditions: 33 days after treatment
Description: as §4, §5

[18] = system: Barnyard grass; assay: Postemergence selectivity, field test: Barnyard grass control (Table IV); type: in vivo; conditions: 33 days after treatment
Description: as §4, §5

[19] = system: corn; assay: Postemergence selectivity, greenhouse: corn injury (Table III); type: in vivo; conditions: 250 ppm
Description: as §1, §2

[20] = system: switchgrass; assay: Preemergence control of switchgrass (Table I); type: in vivo, Panicum viroatum L.; conditions: 11.2 kg/ha, two weeks after treatment
Description: as §1

[21] = system: weeds; assay: Postemergence control, summary statement; type: in vivo; conditions: 3000 ppm
Description: as §1, §3

[22] = system: prickly sida; assay: Preemergence control of prickly sida (Table I); type: in vivo, sida soinosa L.; conditions: 11.2 kg/ha, two weeks after treatment
Description: as §1

[23] = system: tall morningglory; assay: Postemergence control of tall morningglory (Table II); type: in vivo, Ioomea purourea L. Roth; conditions: 3000 ppm, two weeks after treatment
Description: as §1, §3

[24] = system: velvet leaf; assay: Preemergence control of velvet leaf (Table I); type: in vivo, Abutilon theoohrasti Medic.; conditions: 11.2 kg/ha, two weeks after treatment
Description: as §1

[25] = system: green foxtail; assay: Postemergence control of green foxtail (Table II); type: in vivo, Setaria viridis (L.) Beauv.; conditions: 3000 ppm, two weeks after treatment
Description: as §1, §3

N#CCOc1ccc(Oc2cnc3cc(Cl)ccc3n2)cc1 [Compound 1, 2-[4-(6-chloro-2-quinoxalinyloxy)phenoxy]acetonitrile]
herbicidal efficacy [1]: good to excellent herbicidal efficacy
% Control BG [2]: 100%
Percent Weed Control BG [3]: 100%
% Control GF [4]: 90%
% Control VL [5]: 0%
% Control TM [6]: 0%
% Control SG [7]: 100%
corn safety ([8]; 0.125 to 0.50 lb/a): substantially innocuous to corn
Percent corn crop control (injury) ([8]; corn hybrid C1914, 0.125 lb/a): 0%
Percent corn crop control (injury) ([8]; corn hybrid C1914, 0.25 lb/a): 0%
Percent corn crop control (injury) ([8]; corn hybrid C1914, 0.50 lb/a): 0%
Percent corn crop control (injury) ([8]; corn hybrid C6114, 0.125 lb/a): 0%
Percent corn crop control (injury) ([8]; corn hybrid C6114, 0.25 lb/a): 0%
Percent corn crop control (injury) ([8]; corn hybrid C6114, 0.50 lb/a): 0%
Percent corn crop control (injury) ([8]; corn hybrid C8004, 0.125 lb/a): 0%
Percent corn crop control (injury) ([8]; corn hybrid C8004, 0.25 lb/a): 0%
Percent corn crop control (injury) ([8]; corn hybrid C8004, 0.50 lb/a): 0%
Percent corn crop control (injury) ([8]; corn hybrid C9979, 0.125 lb/a): 0%
Percent corn crop control (injury) ([8]; corn hybrid C9979, 0.25 lb/a): 0%
Percent corn crop control (injury) ([8]; corn hybrid C9979, 0.50 lb/a): 0%
Percent corn crop control (injury) ([8]; corn hybrid Pioneer 3295, 0.125 lb/a): 0%
Percent corn crop control (injury) ([8]; corn hybrid Pioneer 3295, 0.25 lb/a): 0%
Percent corn crop control (injury) ([8]; corn hybrid Pioneer 3295, 0.50 lb/a): 0%
% Control BG [9]: 100%
Percent crop injury SOYBEAN [10]: 0%
% Control PS [11]: 0%
control of several grass weeds [12]: good control of several grass weeds
Percent Weed Control GF [13]: 90%
control of several grass weeds [14]: good control of several grass weeds
Percent weed control SG [15]: 100%
Percent crop injury COTTON [16]: 0%
Percent Weed Control GF ([17]; 0.125 lb/a): 99.3%
Percent Weed Control GF ([17]; 0.25 lb/a): 100%
Percent Weed Control GF ([17]; 0.50 lb/a): 100%
Percent Weed Control BG ([18]; 0.125 lb/a): 30.0%
Percent Weed Control BG ([18]; 0.25 lb/a): 43.3%
Percent Weed Control BG ([18]; 0.50 lb/a): 90.0%
corn safety [19]: substantially innocuous to corn
Percent crop injury CORN ([19]; treated May 26, rated Jun. 12): 0%
% Control SG [20]: 50%
postemergent herbicidal control [21]: desirable postemergent herbicidal control
% Control PS [22]: 0%
% Control TM [23]: 0%
% Control VL [24]: 0%
% Control GF [25]: 9%
